Results from patent US7939286B2, “Enhancing a luminescent signal” (Targeting Systems, priority 2005, dated 2011).
Values joined by “and” are separate entries in the source; they are usually repeats but may differ in a detail not shown here. Equal entries are not always repeated.

Key:
[1] = test system: Gaussia luciferase secreted from mammalian cells; assay: Bioluminescence of mammalian-secreted Gaussia luciferase in assay buffer (luminometer);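 on all read-outs here: mammalian cell culture supernatants containing secreted Gaussia luciferase were combined with coelenterazine assay buffer and light emission was read on a luminometer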; conditions: for RLU: zero time; for effect on magnitude (M) of bioluminescent signal, Mammalian Gluc: NaCl conc. 0.075M compared to 0.5M; for stability of the luminescent signal in the presence of different detergents: 0.2% and 0.02% detergent, no EDTA, read again after 15 minutes; for stability of the luminescent signal in the presence of different detergents / bioluminescence T = 0 / bioluminescence T = 15 / bioluminescence T = 45: 1.3 μM coelenterazine; for bioluminescence T = 0 / bioluminescence T = 15 / bioluminescence T = 45: 0.2% detergent final concentration in 0.5×PBS; for bioluminescence T = 0: T = 0 minutes; for bioluminescence T = 15: T = 15 minutes; for bioluminescence T = 45: T = 45 minutes; for effect on magnitude (M at t = 1-2 minutes) of bioluminescent signal, Mammalian Gluc / effect on stability (S at time = 7-10 minutes) of bioluminescent signal, Mammalian Gluc: comparison: 1% EDTA to 0%, 0.2% NP40 to 0.025% or 0%, 4 μM coel. to 1.3 μM, 4 μM benzyl coel. to 1.3 μM; for Gaussia luciferase (mammalian) bioluminescence t = 0 / Gaussia luciferase (mammalian) bioluminescence t = 10: 1.3 μM substrate in 0.5xPBS; for Gaussia luciferase (mammalian) bioluminescence t = 0: t = 0 minutes; for Gaussia luciferase (mammalian) bioluminescence t = 10: t = 10 minutes
Description: Reagents used in the examples include: PBS (Amresco, Solon, Ohio), PBS with Ca/Mg/K (Invitrogen, Carlsbad, Calif.), Igepal CA-630 referred to throughout as NP40 (Sigma Aldrich, St. Louis, Mo.), Standard Renilla assay reagent (Promega, Madison, Wis.), coelenterazine and benzyl coelenterazzine (Prolume/NanoLight Technologies, Pinetop, Ariz.), expression vector for Gaussia luciferase in mammals (New England Biolabs, Inc., Ipswich, Mass.), Dulbecco's minimal essential medium (DMEM) (Invitrogen, Carlsbad, Calif.) used for diluting mammalian and bacterial expressed Gaussia luciferase. Measurements of bioluminescence were carried out with a luminometer (Turner TD2020 luminometer, Turner BioSystems, Sunnyvale, Calif.).
An amount of this coelenterazine solution was added to the assay buffer to a final concentration in the range of I-10 μM. 50 μl of the assay buffer was mixed with 20 μl of sample containing luciferase and bioluminescence was measured using a luminometer.
In this example, 20 μl of mammalian Gaussia luciferase samples (cell supernatants) were mixed with 8 μl of the indicated detergents at 2% and 0.2% concentration (final concentration of detergents in assay solution was 0.2% and 0.02%) and 50 μl of the Gaussia luciferase assay reagent (0.5×PBS, no EDTA, 1.3 μM coelenterazine) and read in a Turner TD2020 Luminometer, Turner BioSystems, Sunnyvale, Calif. The samples were read again after 15 minutes to evaluate the stability of the luminescent signal in the presence of different detergents.

[2] = test system: purified recombinant bacterial Gaussia luciferase; assay: Bioluminescence of recombinant bacterial Gaussia luciferase in assay buffer (luminometer); format: biochemical, Gaussia princeps; conditions: for effect on magnitude (M at t = 1-2 minutes) of bioluminescent signal, bacterial Gluc / effect on stability (S at time = 7-10 minutes) of bioluminescent signal, bacterial Gluc: comparison: 1% EDTA to 0%, 0.2% NP40 to 0.025% or 0%, 4 μM coel. to 1.3 μM, 4 μM benzyl coel. to 1.3 μM; for Gaussia luciferase (bacterial) bioluminescence t = 0 / Gaussia luciferase (bacterial) bioluminescence t = 10: 1.3 μM substrate in 0.5xPBS; for Gaussia luciferase (bacterial) bioluminescence t = 0: t = 0 minutes; for Gaussia luciferase (bacterial) bioluminescence t = 10: t = 10 minutes
Description: Renilla luciferase is commercially available from Prolume/NanoLight Technologies, Pinetop, Ariz. Recombinant bacterial Gaussia luciferase was obtained from Prolume/Nanolight Technologies, Pinetop, Ariz. […] An amount of powdered bacterial Gaussia luciferase obtained from Nanolight Technologies, Pinetop, Ariz., was dissolved in DMEM and diluted in control assay buffer until a reading could be obtained from a luminometer.

[3] = target: T1, Renilla luciferase (Renilla reniformis, UniProt P27652); assay: Bioluminescence of Renilla luciferase in assay buffer (luminometer); format: biochemical; conditions: for stability of the luminescent signal in the presence of different detergents: 0.2% and 0.02% detergent; for effect of 0.2% detergent on Renilla luciferase activity (FIG. 7): 0.2% v/v detergent, T=0 and T=18 minutes; for effect on magnitude (M at t = 1-2 minutes) of bioluminescent signal, Bacterial Rluc / effect on stability (S at time = 7-10 minutes) of bioluminescent signal, Bacterial Rluc: comparison: 1% EDTA to 0%, 0.2% NP40 to 0.025% or 0%, 4 μM coel. to 1.3 μM, 4 μM benzyl coel. to 1.3 μM; for Renilla luciferase bioluminescence t = 0 / Renilla luciferase bioluminescence t = 20: 1.3 μM substrate in 0.5xPBS, 0.025% NP40; for Renilla luciferase bioluminescence t = 0: t = 0 minutes; for Renilla luciferase bioluminescence t = 20: t = 20 minutes
T1 construct: purchased Prolume/NanoLight Technologies, Pinetop, Ariz
T1 sequence (P27652 1-311): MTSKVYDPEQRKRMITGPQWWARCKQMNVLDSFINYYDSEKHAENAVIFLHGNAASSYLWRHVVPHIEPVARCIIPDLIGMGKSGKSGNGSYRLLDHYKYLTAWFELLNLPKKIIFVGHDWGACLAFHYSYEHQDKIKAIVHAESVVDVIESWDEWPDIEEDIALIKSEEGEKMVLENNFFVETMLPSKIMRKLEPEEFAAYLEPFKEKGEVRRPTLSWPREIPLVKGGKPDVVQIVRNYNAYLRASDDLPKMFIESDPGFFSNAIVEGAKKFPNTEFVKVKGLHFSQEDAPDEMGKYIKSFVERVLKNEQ
Text: Renilla luciferase is commercially available from Prolume/NanoLight Technologies, Pinetop, Ariz. Recombinant bacterial Gaussia luciferase was obtained from Prolume/Nanolight Technologies, Pinetop, Ariz.

[4] = target: Firefly luciferase (Photinus pyralis, UniProt P08659); assay: Summary of effect on bioluminescent signal of firefly luciferase; format: biochemical
[5] = 1.3 μM substrate, 0.5×PBS, 1% EDTA, 0.025% NP40, compared with 1.3 μM coelenterazine

Sequence of Firefly luciferase (P08659 whole entry): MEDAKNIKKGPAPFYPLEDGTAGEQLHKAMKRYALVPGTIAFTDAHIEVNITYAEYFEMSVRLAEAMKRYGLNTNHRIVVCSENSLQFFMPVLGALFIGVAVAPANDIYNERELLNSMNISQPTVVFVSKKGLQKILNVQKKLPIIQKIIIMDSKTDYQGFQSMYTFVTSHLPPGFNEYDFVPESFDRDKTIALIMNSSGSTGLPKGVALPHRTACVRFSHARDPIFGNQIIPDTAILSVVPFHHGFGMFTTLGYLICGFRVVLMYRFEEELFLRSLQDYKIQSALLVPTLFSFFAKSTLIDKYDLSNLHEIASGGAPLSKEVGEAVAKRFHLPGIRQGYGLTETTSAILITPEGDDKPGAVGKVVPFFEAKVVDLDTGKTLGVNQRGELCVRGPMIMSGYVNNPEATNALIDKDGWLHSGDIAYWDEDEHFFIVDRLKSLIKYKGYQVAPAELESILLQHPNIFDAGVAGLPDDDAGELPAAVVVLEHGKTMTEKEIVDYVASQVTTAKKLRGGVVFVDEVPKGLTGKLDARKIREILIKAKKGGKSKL

Row | Compound | effect on magnitude (M at t = 1-2 minutes) of bioluminescent signal, bacterial Gluc [2] | bioluminescence T = 0 ([1]; 1% EDTA) | bioluminescence T = 15 ([1]; 1% EDTA) | bioluminescence T = 45 ([1]; 1% EDTA) | effect on magnitude (M at t = 1-2 minutes) of bioluminescent signal, Mammalian Gluc [1] | effect on stability (S at time = 7-10 minutes) of bioluminescent signal, Mammalian Gluc [1] | effect of 0.2% detergent on Renilla luciferase activity (FIG. 7) [3] | effect on magnitude (M at t = 1-2 minutes) of bioluminescent signal, Bacterial Rluc [3] | effect on stability (S at time = 7-10 minutes) of bioluminescent signal, Bacterial Rluc [3] | also measured
1 | [Cl-].[Na+] [NaCl, sodium chloride] |  |  |  |  |  |  |  |  |  | RLU ([1]; 0.175M NaCl in adjusted 0.5 × PBS + 1% EDTA + 0.025% NP40 + 1.3 μM coel.): 1322 RLU and 1350 RLU and 1242 RLU; RLU ([1]; 0.275M NaCl in adjusted 0.5 × PBS + 1% EDTA + 0.025% NP40 + 1.3 μM coel.): 1364 RLU and 1252 RLU and 1204 RLU; RLU ([1]; 0.375M NaCl in adjusted 0.5 × PBS + 1% EDTA + 0.025% NP40 + 1.3 μM coel.): 1129 RLU and 1098 RLU and 1246 RLU; RLU ([1]; 0.5M NaCl in adjusted 0.5 × PBS + 1.3 μM coel.): 1212 RLU and 701 RLU; RLU ([1]; 0.575M NaCl in adjusted 0.5 × PBS + 1% EDTA + 0.025% NP40 + 1.3 μM coel.): 1049 RLU and 1035 RLU and 1149 RLU; RLU ([1]; 1M NaCl in adjusted 0.5 × PBS + 1.3 μM coel.): 760 RLU and 750 RLU; effect on magnitude (M) of bioluminescent signal, Mammalian Gluc ([1]; + EDTA): M same + EDTA; effect on magnitude (M) of bioluminescent signal, Mammalian Gluc ([1]; −EDTA-NP40): M down
2 | NP40 | M down | 87 RLU | 112 RLU | 79 RLU | M down | S up | stabilizing effect | M down | S up | effect on stability (S at time = 7-10 minutes) of bioluminescent signal, bacterial Gluc [2]: S up; stability of the luminescent signal in the presence of different detergents ([1]; 0.5×PBS): optimum stability; stability of the luminescent signal in the presence of different detergents [3]: optimum stability; effect on stability (S at time = 7-10 minutes) of bioluminescent signal, Firefly ([4]; 0.2% NP40 compared to 0.025% or 0%): S up
3 | benzyl coelenterazine [Benzyl Coel.] | M down |  |  |  | M down | S down |  | M up | S up | Gaussia luciferase (bacterial) bioluminescence t = 0 ([2]; 0.025% NP40): 81.75 and 83 and 84; Gaussia luciferase (bacterial) bioluminescence t = 10 ([2]; 0.025% NP40): 7.9 and 8.1; suitability as substrate (FIG. 8) [2, 5]: poor substrate; effect on stability (S at time = 7-10 minutes) of bioluminescent signal, bacterial Gluc [2]: S down; Gaussia luciferase (mammalian) bioluminescence t = 0 ([1]; 0.025% NP40): 34 and 30 and 31; Gaussia luciferase (mammalian) bioluminescence t = 10 ([1]; 0.025% NP40): 3.49 and 3.6 and 3.66; suitability as substrate (FIG. 8) [1, 5]: poor substrate; Renilla luciferase bioluminescence t = 0 [3]: 9036 and 7687 and 7955; Renilla luciferase bioluminescence t = 20 [3]: 2234 and 1944 and 1359; suitability as substrate (FIG. 9) ([3]; 1.3 μM substrate, 0.5×PBS, 0.025% NP40, 1% EDTA, compared with 1.3 μM coelenterazine): good substrate
4 | deoxycholate [DOC] |  | 4 RLU | 2 RLU | 2 RLU |  |  |  |  |  | 
5 | O=C(O)CN(CCN(CC(=O)O)CC(=O)O)CC(=O)O [EDTA] | M down |  |  |  | M down | S up |  | M down | S down | effect on magnitude (M at t = 1-2 minutes) of bioluminescent signal, Firefly ([4]; 1% EDTA compared to 0%): M down
6 | CCCCCCCCCCCCOS(=O)(=O)[O-].[Na+] [SDS, sodium dodecyl sulfate] |  | 0 RLU | 0 RLU | 0 RLU |  |  |  |  |  | 
7 | Oc1ccc(Cc2nc3c(Cc4ccccc4)nc(-c4ccc(O)cc4)cn3c2O)cc1 [Coel., coelenterazine] | M up |  |  |  | M up |  |  | M up | S down | Gaussia luciferase (bacterial) bioluminescence t = 0 ([2]; 0.025% NP40): 1630 and 1837 and 1903; Gaussia luciferase (bacterial) bioluminescence t = 10 ([2]; 0.025% NP40): 58 and 59 and 60; effect of coelenterazine concentrations greater than 4 μM on luciferase activity (FIG. 4B) ([2]; 1.3-25 μM coelenterazine): no significant increases in luciferase activity; Gaussia luciferase (mammalian) bioluminescence t = 0 ([1]; 0.025% NP40): 594 and 565 and 556; Gaussia luciferase (mammalian) bioluminescence t = 10 ([1]; 0.025% NP40): 31 and 30 and 29; effect of coelenterazine concentrations greater than 4 μM on luciferase activity (FIG. 4A) ([1]; 1.3-25 μM coelenterazine in 0.5×PBS, 1% EDTA, 0.025% NP40, zero time): no significant increase in luciferase activity; Renilla luciferase bioluminescence t = 0 [3]: 2296 and 1790 and 2520; Renilla luciferase bioluminescence t = 20 [3]: 194 and 139 and 211
8 | CCCCCCCC/C=C\CCCCCCCC(=O)OCCOCC(OCCO)C1OCC(OCCO)C1OCCO (stereo not shown) [Tween80] |  | 128 RLU | 101 RLU | 58 RLU |  |  | stabilizing effect |  |  | 
9 | Triton X-100 |  | 59 RLU | 80 RLU | 63 RLU |  |  | stabilizing effect |  |  | stability of the luminescent signal in the presence of different detergents ([1]; 0.5×PBS): optimum stability; stability of the luminescent signal in the presence of different detergents [3]: optimum stability
